In patent US12116357B2, “Heteroaryl-triazole and heteroaryl-tetrazole compounds as pesticides” (Bayer Aktiengesellschaft, priority 2018, dated 2024):

Tests used:
Type in all cases: in vivo
Rhipicephalus sanguineus = Rhipicephalus sanguineus in-vitro contact test, adult brown dog ticks
Method: (§1) 9 mg compound is solved in 1 ml acetone and diluted with acetone to the desired concentration. 250 μl of the test solution is filled in 25 ml glass test tubes and homogeneously distributed on the inner walls by rotation and tilting on a shaking device (2 h at 30 rpm). With a compound concentration of 900 ppm, an inner surface of 44.7 cm^2 and a homogeneous distribution, a dose of 5 μg/cm^2 is achieved.
After the solvent has evaporated, each test tube is filled with 5-10 adult brown dog ticks (Rhipicephalus sanguineus), closed with a perforated lid and incubated in a lying position at room temperature and relative humidity. After 48 hours efficacy is determined. The ticks are patted on the ground of the tubes and are incubated on a heating plate at 45-50° C. for at most 5 minutes. Immotile or uncoordinated moving ticks, which are not able to escape the heat by climbing upwards, are marked as dead or moribund.
An efficacy of 100% means all ticks are dead or moribund; 0% means no ticks are dead or moribund.

Boophilus microplus = Boophilus microplus injection test; settings: Rhipicephalus microplus, 168 h, 20 μg/animal, egg deposition after 7 days, read-out: efficacy (infertile eggs)
Method: (§2) • Solvent: dimethyl sulfoxide
To produce a suitable preparation of active compound, 10 mg of active compound are dissolved in 0.5 ml solvent, and the concentrate is diluted with solvent to the desired concentration.
Five adult engorged female ticks (Boophilus microplus) are injected with 1 μl compound solution into the abdomen. The ticks are transferred into replica plates and incubated in a climate chamber.
After 7 days egg deposition of fertile eggs is monitored. Eggs where fertility is not visible are stored in a climate chamber till hatching after about 42 days. An efficacy of 100% means all eggs are infertile; 0% means all eggs are fertile.

Nezara viridula = Nezara viridula spray test; settings: 96 h
Method: (§3) • Solvent: 78.0 parts by weight of acetone • 1.5 parts by weight of dimethylformamide • Emulsifier: alkylarylpolyglycol ether
To produce a suitable preparation of active compound, 1 part by weight of active compound is mixed with the stated amount of solvent, and the concentrate is diluted with water, containing an emulsifier concentration of 1000 ppm, to the desired concentration. Further test concentrations are prepared by dilution with emulsifier containing water.
Barley plants (Hordeum vulgare) infested with larvae of the southern green stink bug (Nezara viridula) are sprayed with a test solution containing the desired concentration of the active ingredient.
After 4 days mortality in % is determined. 100% means all the stink bugs have been killed; 0% means none of the stink bugs have been killed.

Nilaparvata lugens = Nilaparvata lugens spray test; settings: 96 h
Method: as §3
(§4) To produce a suitable preparation of active compound, 1 part by weight of active compound is mixed with the stated amount of solvents and is diluted with water, containing an emulsifier concentration of 1000 ppm, to the desired concentration. Further test concentrations are prepared by dilution with emulsifier containing water.
Rice plants (Oryza sativa) are sprayed with a preparation of the active ingredient of the desired concentration and the plants are infested with the brown planthopper (Nilaparvata lugens).
After 4 days mortality in % is determined. 100% means all planthoppers have been killed and 0% means none of the planthoppers have been killed.

Ctenocephalides felis [1] = assay: Ctenocephalides felis in-vitro contact test, adult cat flea; settings: 5 μg/cm^2, after 48 hours, read-out: efficacy (fleas dead or moribund)
Method: as §1
After the solvent has evaporated, each test tube is filled with 5-10 adult cat fleas (Ctenocephalides felis), closed with a perforated lid and incubated in a lying position at room temperature and relative humidity. After 48 hours efficacy is determined. The fleas are patted on the ground of the tubes and are incubated on a heating plate at 45-50° C. for at most 5 minutes. Immotile or uncoordinated moving fleas, which are not able to escape the heat by climbing upwards, are marked as dead or moribund.
An efficacy of 100% means all fleas are dead or moribund; 0% means no fleas are dead or moribund.

Spodoptera frugiperda = Spodoptera frugiperda spray test; settings: 168 h
Method: (§5) • Solvent: 78.0 parts by weight acetone • 1.5 parts by weight dimethylformamide • Emulsifier: alkylarylpolyglycol ether
as §4
Maize (Zea mays) leaf sections are sprayed with a preparation of the active ingredient of the desired concentration. Once dry, the leaf sections are infested with fall armyworm larvae (Spodoptera frugiperda).
After 7 days mortality in % is determined. 100% means all caterpillars have been killed and 0% means none of the caterpillars have been killed.

Myzus persicae [2] = assay: Myzus persicae spray test; settings: 120 h
Method: as §5, §4
Chinese cabbage (Brassica pekinensis) leaf disks infected with all instars of the green peach aphid (Myzus persicae), are sprayed with a preparation of the active ingredient of the desired concentration.
(§6) After 5 days mortality in % is determined. 100% means all aphids have been killed and 0% means none of the aphids have been killed.

[3] = test system: Culex quinquefasciatus strain P00; assay: Culex quinquefasciatus test (surface treatment & contact assay); settings: 24 hours after contact, read-out: efficacy (mortality); for mortality at 20 mg/m2: surface concentration 20 mg/m^2, 30 min exposure
Method: (§7) • Solvent: Aceton+2000 ppm rapeseed oil methyl ester (RME)
In order to produce a sufficient, active ingredient containing solution it is necessary to solve the test compound in the solvent-mix (acetone at 2 mg/ml/RME 2000 ppm). This solution is pipetted onto a glazed tile and after evaporation of the acetone, adult mosquitoes of the species Culex quinquefasciatus strain P00 are placed onto the dried surface. The exposure time is 30 minutes.
(§8) Mortality in percent (%) is determined 24 hours after contact of the insects to the treated surface. 100% mortality means that all tested insects are dead, whereas 0% means that no insect died.

[4] = test system: Anopheles funestus strain FUMOZ-R; assay: Anopheles funestus test (surface treatment & contact assay); settings: surface concentration 20 mg/m^2, 30 min exposure, 24 hours after contact, read-out: efficacy (mortality)
Method: as §7
In order to produce a sufficient, active ingredient containing solution it is necessary to solve the test compound in the solvent-mix (acetone at 2 mg/ml/RME 2000 ppm). This solution is pipetted onto a glazed tile and after evaporation of the acetone, adult mosquitoes of the species Anopheles funestus strain FUMOZ-R (Hunt et al., Med. Vet. Entomol. 2005 September; 19(3): 271-275) are placed onto the dried surface. The exposure time is 30 minutes.
as §8

[5] = test system: Musca domestica strain WHO-N; assay: Musca domestica test (surface treatment & contact assay); settings: 24 hours after contact, read-out: efficacy (mortality); for mortality at 4 mg/m2: surface concentration 4 mg/m^2, 30 min exposure; for mortality at 20 mg/m2: surface concentration 20 mg/m^2, 30 min exposure
Method: as §7
In order to produce a sufficient, active ingredient containing solution it is necessary to solve the test compound in the solvent-mix (acetone at 2 mg/ml/RME 2000 ppm). This solution is pipetted onto a glazed tile and after evaporation of the acetone, adult flies of the species Musca domestica strain WHO-N are placed onto the dried surface. The exposure time is 30 minutes.
as §8

[6] = test system: Aedes aegypti strain MONHEIM; assay: Aedes aegypti test (surface treatment & contact assay); settings: 24 hours after contact, read-out: efficacy (mortality); for mortality at 4 mg/m2: surface concentration 4 mg/m^2, 30 min exposure; for mortality at 20 mg/m2: surface concentration 20 mg/m^2, 30 min exposure
Method: as §7
In order to produce a sufficient, active ingredient containing solution it is necessary to solve the test compound in the solvent-mix (acetone at 2 mg/ml/RME 2000 ppm). This solution is pipetted onto a glazed tile and after evaporation of the acetone, adult mosquitoes of the species Aedes aegypti strain MONHEIM are placed onto the dried surface. The exposure time is 30 minutes.
as §8

Myzus persicae [7] = assay: Myzus persicae oral test; settings: 120 h
Method: • Solvent: 100 parts by weight acetone
To produce a suitable preparation of active compound, 1 part by weight of active compound is mixed with the stated amount of solvent, and the concentrate is diluted with water to the desired concentration. 50 μl compound solution is filled in microtiter plates and 150 μl IPL41 insect medium (33%+15% sugar) is added to obtain a total volume of 200 μl per well. Afterwards the plates are sealed with parafilm through which a mixed population of the green peach aphid (Myzus persicae) can suck on the compound preparation.
as §6

Ctenocephalides felis [8] = assay: Ctenocephalides felis oral test; settings: 48 h, 100 ppm in cattle blood, after 2 days
Method: as §2
To produce a suitable preparation of active compound, 10 mg of active compound are dissolved in 0.5 ml solvent, and the concentrate is diluted with cattle blood to the desired concentration.
Approximately 20 adult unfed cat fleas (Ctenocephalides felis) are placed in flea chambers. The blood chamber, sealed with parafilm on the bottom, are filled with cattle blood supplied with compound solution and placed on the gauze covered top of the flea chamber, so that the fleas are able to suck the blood. The blood chamber is heated to 37° C. whereas the flea chamber is kept at room temperature.
After 2 days mortality in % is determined. 100% means all the fleas have been killed; 0% means none of the fleas have been killed.

Phaedon cochleariae = Phaedon cochleariae spray test; settings: 168 h, after 7 days
Method: as §3, §4
Chinese cabbage (Brassica pekinensis) leaf disks are sprayed with a preparation of the active ingredient of the desired concentration. Once dry, the leaf disks are infested with mustard beetle larvae (Phaedon cochleariae).
After 7 days mortality in % is determined. 100% means all beetle larvae have been killed and 0% means none of the beetle larvae have been killed.

Compound	efficacy (ticks dead or moribund) (Rhipicephalus sanguineus; 1 μg/cm^2, after 48 hours)	efficacy (ticks dead or moribund) (Rhipicephalus sanguineus; 5 μg/cm^2, after 48 hours)	pest or weed control at 0.02 mg (Boophilus microplus)	mortality at 500 g/ha (Nezara viridula)	mortality at 500 g/ha (Nilaparvata lugens)	pest or weed control at 5 µg/cm2 (Ctenocephalides felis [1])	mortality at 500 g/ha (Spodoptera frugiperda)	mortality at 500 g/ha (Myzus persicae [2])	mortality at 20 mg/m2 [3]	mortality at 20 mg/m2 [4]	mortality at 4 mg/m2 [5]	mortality at 20 mg/m2 [5]	mortality at 4 mg/m2 [6]	mortality at 20 mg/m2 [6]	mortality at 4 ppm (Myzus persicae [7])	mortality at 100 ppm (Ctenocephalides felis [8])	mortality at 4 mg/m2 ([3]; surface concentration 4 mg/m^2, 30 min exposure)	mortality at 500 g/ha (Phaedon cochleariae)	mortality at 20 ppm (Myzus persicae [7])
CON(C(=O)c1cccc(C(F)(F)F)c1)C(C)c1ncnn1-c1ncccn1 (stereo not shown) [Example I-028]	80%	100%	100%	100%	100%	–	–	–	–	–	–	–	–	–	–	–	–	–	–
CSCCN(C(=O)c1cc(Cl)cc(C(F)(F)F)c1)C(C)c1ncnn1-c1ccc(C#N)cn1 (stereo not shown) [Example I-033]	–	–	–	100%	–	100%	100%	90%	90 to 100%	85 to 100%	90 to 100%	90 to 100%	80 to 100%	90 to 100%	100%	–	–	–	–
CC(c1ncnn1-c1ncccn1)N(Cc1ccc(Cl)nc1)C(=O)c1cc(Cl)cc(C(F)(F)F)c1 (stereo not shown) [Example I-030]	–	–	100%	100%	100%	90%	100%	100%	90 to 100%	85 to 100%	90 to 100%	90 to 100%	80 to 100%	90 to 100%	100%	100%	–	–	–
CCON(C(=O)c1cccc(C(F)(F)F)c1)C(C)c1ncnn1-c1ncccn1 (stereo not shown) [Example I-029]	–	80%	100%	100%	–	100%	–	–	–	–	–	–	–	–	100%	80%	–	–	–
CSCCN(C(=O)c1cc(C(F)(F)F)cc(C(F)(F)F)c1)C(C)c1ncnn1-c1ccc(C#N)cn1 (stereo not shown) [Example I-034]	–	–	–	100%	–	100%	100%	100%	90 to 100%	85 to 100%	90 to 100%	90 to 100%	–	90 to 100%	100%	–	85 to 100%	–	–
COCCN(C(=O)c1cc(Cl)cc(S(C)(=O)=O)c1)C(C)c1ncnn1-c1ncccn1 (stereo not shown) [Example I-031]	–	–	100%	100%	100%	80%	–	100%	–	85 to 100%	–	–	–	–	100%	100%	–	–	–
COCCN(C(=O)c1cc(Cl)cc(C(F)(F)F)c1)C(C)c1ncnn1-c1ncccn1 (stereo not shown) [Example I-005]	80%	80%	100%	90%	–	–	100%	–	–	–	–	–	–	–	100%	100%	–	100%	100%
